The target of one data set is T1, human NK2 receptor (Homo sapiens, UniProt P21452).
T1 construct: expressed in transfected cells; host or cells: Chinese hamster ovary (CHO) cells, membranes
T1 sequence (P21452 1-398): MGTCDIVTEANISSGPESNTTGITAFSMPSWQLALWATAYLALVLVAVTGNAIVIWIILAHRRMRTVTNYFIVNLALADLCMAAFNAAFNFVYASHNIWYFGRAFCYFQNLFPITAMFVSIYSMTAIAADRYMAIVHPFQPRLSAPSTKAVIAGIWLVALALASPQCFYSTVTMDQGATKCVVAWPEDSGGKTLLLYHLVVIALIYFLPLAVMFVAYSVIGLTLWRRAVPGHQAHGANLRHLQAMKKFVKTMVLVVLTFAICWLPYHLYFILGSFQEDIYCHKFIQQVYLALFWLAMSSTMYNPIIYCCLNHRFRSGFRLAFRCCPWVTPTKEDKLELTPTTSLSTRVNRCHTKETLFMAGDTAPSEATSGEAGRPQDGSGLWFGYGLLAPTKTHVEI
As to the kind of experiment: Competition with [3H] or [125I] NKA for binding to membranes of CHO cells expressing the cloned human NK2 receptor. The settings on record: membranes from CHO cells expressing cloned human NK2 receptor, 90 min, 25° C. Here is the method: The affinity of the compounds of formula (I), and their salts, for the human NK2 receptor can be assessed in vitro by testing their ability to compete with [^3H] or [^125I] NKA (neurokinin A) for binding to membranes prepared from Chinese hamster ovary cells expressing the cloned human NK2 receptor using a modification of the method described in McLean, S. et al., J. Pharm. Exp. Ther., 267, 472–9 (1993). The membranes are incubated (90 min, 25° C.) with [^3H] or [^125I] NKA and a range of concentrations of the test compound. Non specific binding was determined in the presence of 1 μM SR-48968 (N-[(2S)-4-[4-(acetylamino)-4-phenyl-1-piperidinyl]-2-(3,4-dichlorophenyl)butyl]-N-methyl benzamide).

Results on eleven compounds are retold here after patent publication US7060836B2, “Lactams as tachykinin antagonists” (Pfizer, Inc, priority 2001, dated 2006).

By melting point is commonly meant the temperature, or range, at which the solid turns liquid. As a reminder, the Ki is a dissociation constant, usually derived from enzyme kinetics or from competition with a known ligand.

Each structure is given as a SMILES string.

As for `Cc1cccc(N2C[C@@](CCN3CC(N4CCC(O)CC4)C3)(c3ccc(Cl)c(Cl)c3)CCC2=O)n1.O=C(O)/C=C/C(=O)O`, the melting point was 175.5 to 177 °C.
For the compound `COC1CCN(CC[C@]2(c3ccc(Cl)c(Cl)c3)CCC(=O)N(c3ccccn3)C2)CC1` [Example 61, (5S)-5-(3,4-Dichlorophenyl)-5-[2-(4-methoxy-1-piperidinyl)ethyl]-1-(2-pyridinyl)-2-piperidinone], at human NK2 receptor, the Ki worked out at 12 nM.
Regarding `O=C1CC[C@](CCN2CC(N3CCC(O)CC3)C2)(c2ccc(Cl)c(Cl)c2)CN1c1ccccn1` [Example 73, (5S)-5-(3,4-Dichlorophenyl)-5-{2-[3-(4-hydroxy-1-piperidinyl)-1-azetidinyl]ethyl}-1-(2-pyridinyl)-2-piperidinone], the Ki on human NK2 receptor came out at 2.2 nM.
In the case of `CC(=O)NC1(c2ccccc2)CCN(CC[C@]2(c3ccc(Cl)c(Cl)c3)CCC(=O)N(c3ccccn3)C2)CC1` [Example 90, N-(1-{2-[(3S)-3-(3,4-Dichlorophenyl)-6-oxo-1-(2-pyridinyl)piperidinyl]ethyl}-4-phenyl-4-piperidinyl)-acetamide], the Ki at human NK2 receptor was found to be 2.4 nM.
Same read-out and setting: the figure for `O=C1CC[C@](CCN2CCC(O)(c3ccccn3)CC2)(c2ccc(Cl)c(Cl)c2)CN1c1ccccn1` [Example 92, (5S)-5-(3,4-Dichlorophenyl)-5-{2-[4-hydroxy-4-(2-pyridyl)-1-piperidinyl]ethyl}-1-(2-pyridinyl)-2-piperidinone] is 7 nM.
On the same count and under the same terms, then `COc1cccc(N2C[C@@](CCN3CC(N4CCOCC4)C3)(c3ccc(Cl)c(Cl)c3)CCC2=O)n1` [Example 119, (5S)-5-(3,4-Dichlorophenyl)-1-(6-methoxy-2-pyridinyl)-5-{2-[3-(4-morpholinyl)-1-azetidinyl]ethyl}-2-piperidinone], with 5.4 nM.
On the same count and under the same terms, the figure for `Cc1cccc(N2C[C@@](CCN3CC(N4CCOCC4)C3)(c3ccc(Cl)c(Cl)c3)CCC2=O)n1` [Example 131, (5S)-5-(3,4-Dichlorophenyl)-1-(6-methyl-2-pyridinyl)-5-{2-[3-(4-morpholinyl)-1-azetidinyl]ethyl}-2-piperidinone] is 3.8 nM; for `Cc1cccc(N2C[C@@](CCN3CCC(O)(c4ccccc4)CC3)(c3ccc(Cl)c(Cl)c3)CCC2=O)n1` [Example 134, (5S)-5-(3,4-Dichlorophenyl)-1-(6-methyl-2-pyridinyl)-5-{{2-[4-hydroxy-4-phenyl]-1-piperidinyl}ethyl}-2-piperidinone] it is 1.9 nM.
In the case of `Cc1cccc(N2C[C@@](CCN3CC(N4CCC(O)CC4)C3)(c3ccc(Cl)c(Cl)c3)CCC2=O)n1` [Example 135a, (5S)-5-(3,4-Dichlorophenyl)-1-(6-methyl-2-pyridinyl)-5-{2-[3-(4-hydroxypiperidinyl)-1-azetidinyl]ethyl}-2-piperidinone], on human NK2 receptor, the Ki came to 3.7 nM.
The same measure, in the same setting: the figure for `CC(=O)N(C)C1CCN(CC[C@]2(c3ccc(Cl)c(Cl)c3)CCC(=O)N(c3ccccn3)C2)CC1` [Example 158, N-(1-{2-[(3S)-3-(3,4-Dichlorophenyl)-6-oxo-1-(2-pyridinyl)piperidinyl]ethyl}-4-piperidinyl)-N-methylacetamide] is 8 nM; for `Cc1cccc(N2CC(CCN3CC(N4CCC(=O)CC4)C3)(c3ccc(Cl)c(Cl)c3)CCC2=O)n1` (centres unmarked) [Example 168, 5-(3,4-Dichlorophenyl)-1-(6-methyl-2-pyridinyl)-5-{2-[3-(4-oxo-1-piperidinyl)-1-azetidinyl]ethyl}-2-piperidinone] it is 2.6 nM.
